In ChEMBL document CHEMBL1201862, “PubChem BioAssay data set” (2004):
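Each compound was tested at five concentrations against cells in 96-well plates for 48 hours. GI50 is the concentration that inhibits growth by half.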 The source made the active and inactive calls. Rule as the data show it: active = GI50 up to about 1.1 µM and inactive = higher.

How the values were obtained:
Test in all cases: inhibition of tumour cell growth, NCI panel, 48 h
CAKI-1 = test system: CAKI-1
SK-MEL-28 = test system: SK-MEL-28
UACC-62 = test system: UACC-62
SW-620 = test system: SW-620
SNB-19 = test system: SNB-19
SF-268 = test system: SF-268
Hs-578T = test system: Hs-578T
OVCAR-3 = test system: OVCAR-3
U-251 = test system: U-251
IGROV-1 = test system: IGROV-1
EKVX = test system: EKVX
OVCAR-5 = test system: OVCAR-5
DU-145 = test system: DU-145
KM12 = test system: KM12
M14 = test system: M14
NCI-H522 = test system: NCI-H522
HL-60 = test system: HL-60
BT-549 = test system: BT-549
NCI-H226 = test system: NCI-H226
K562 = test system: K562
HOP-92 = test system: HOP-92
SK-MEL-5 = test system: SK-MEL-5
SN12C = test system: SN12C
MDA-MB-435 = test system: MDA-MB-435
PC-3 = test system: PC-3
MOLT-4 = test system: MOLT-4
MCF7 = test system: MCF7
NCI-H23 = test system: NCI-H23
CCRF-CEM = test system: CCRF-CEM
HCT-116 = test system: HCT-116
HOP-62 = test system: HOP-62
786-0 = test system: 786-0
Malme-3M = test system: Malme-3M
HCT-15 = test system: HCT-15
OVCAR-4 = test system: OVCAR-4
T47D = test system: T47D
HT-29 = test system: HT-29
RXF 393 = test system: RXF 393
NCI-H460 = test system: NCI-H460
UO-31 = test system: UO-31
SNB-75 = test system: SNB-75
NCI/ADR-RES = test system: NCI/ADR-RES
TK-10 = test system: TK-10
ACHN = test system: ACHN
A498 = test system: A498
SF-539 = test system: SF-539
A549 = test system: A549
SK-OV-3 = test system: SK-OV-3
SR = test system: SR
MDA-N = test system: MDA-N
RPMI-8226 = test system: RPMI-8226
MDA-MB-231 = test system: MDA-MB-231
HCC 2998 = test system: HCC 2998
SK-MEL-2 = test system: SK-MEL-2
COLO 205 = test system: COLO 205
LOX IMVI = test system: LOX IMVI
SF-295 = test system: SF-295
UACC-257 = test system: UACC-257
OVCAR-8 = test system: OVCAR-8
SNB-78 = test system: SNB-78
DLD-1 = test system: DLD-1

For `COc1c2c(cc3c1C(O)N1CC[C@]34[C@H]3O[C@H]3[C@H](OC)C[C@@H]14)OCO2` (stereo partly specified), the GI50 (CAKI-1) was > 100 µM (inactive), the GI50 (SK-MEL-28) was > 100 µM (inactive) and the GI50 (UACC-62) was 39.3 µM (inactive). For the same compound, the GI50 (SW-620) was 54.7 µM (inactive), the GI50 (SNB-19) was > 100 µM (inactive) and the GI50 (SF-268) was > 100 µM (inactive). For the same compound, the GI50 (Hs-578T) was > 100 µM (inactive), the GI50 (OVCAR-3) was 16.4 µM (inactive) and the GI50 (U-251) was > 100 µM (inactive). For the same compound, the GI50 (IGROV-1) was 64.9 µM (inactive), the GI50 (EKVX) was > 100 µM (inactive) and the GI50 (OVCAR-5) was > 100 µM (inactive). For the same compound, the GI50 (DU-145) was > 100 µM (inactive), the GI50 (KM12) was 73.1 µM (inactive) and the GI50 (M14) was 85.3 µM (inactive). The GI50 (NCI-H522) was 31.9 µM (inactive), the GI50 (HL-60) was 1.18 µM (inactive) and the GI50 (BT-549) was > 100 µM (inactive). The GI50 (NCI-H226) was > 100 µM (inactive), the GI50 (K562) was 48 µM (inactive) and the GI50 (HOP-92) was > 100 µM (inactive). For the same compound, the GI50 (SK-MEL-5) was 64.6 µM (inactive), the GI50 (SN12C) was > 100 µM (inactive) and the GI50 (MDA-MB-435) was 31.6 µM (inactive). For the same compound, the GI50 (PC-3) was 39.3 µM (inactive), the GI50 (MOLT-4) was > 100 µM (inactive) and the GI50 (MCF7) was 35 µM (inactive). The GI50 (NCI-H23) was > 100 µM (inactive), the GI50 (CCRF-CEM) was 2.38 µM (inactive) and the GI50 (HCT-116) was 75 µM (inactive). The GI50 (HOP-62) was 35.8 µM (inactive), the GI50 (786-0) was > 100 µM (inactive) and the GI50 (Malme-3M) was 71.1 µM (inactive). For the same compound, the GI50 (HCT-15) was 67.3 µM, the GI50 (OVCAR-4) was > 100 µM (inactive) and the GI50 (T47D) was > 100 µM (inactive). The GI50 (HT-29) was 42.8 µM (inactive), the GI50 (RXF 393) was 67.5 µM (inactive) and the GI50 (NCI-H460) was 72.3 µM (inactive). For the same compound, the GI50 (UO-31) was > 100 µM (inactive), the GI50 (SNB-75) was 86.3 µM (inactive) and the GI50 (NCI/ADR-RES) was > 100 µM (inactive). For the same compound, the GI50 (TK-10) was > 100 µM (inactive), the GI50 (ACHN) was > 100 µM (inactive) and the GI50 (A498) was 50.5 µM (inactive). For the same compound, the GI50 (SF-539) was > 100 µM (inactive), the GI50 (A549) was > 100 µM (inactive) and the GI50 (SK-OV-3) was 24.2 µM (inactive). The GI50 (SR) was 21.9 µM (inactive), the GI50 (MDA-N) was 25.3 µM (inactive) and the GI50 (RPMI-8226) was 82 µM (inactive). For the same compound, the GI50 (MDA-MB-231) was > 100 µM (inactive), the GI50 (HCC 2998) was > 100 µM (inactive) and the GI50 (SK-MEL-2) was 26.4 µM (inactive). The GI50 (COLO 205) was 97.9 µM (inactive), the GI50 (LOX IMVI) was 71.4 µM (inactive) and the GI50 (SF-295) was 27.2 µM (inactive). For the same compound, the GI50 (UACC-257) was 64.6 µM (inactive) and the GI50 (OVCAR-8) was > 100 µM (inactive).

`O=C(O)/C=C/c1c[nH]c(=O)[nH]c1=O` was tested, and the GI50 (SK-MEL-28) was > 250 µM (inactive), the GI50 (UACC-62) was > 250 µM (inactive) and the GI50 (SW-620) was > 250 µM (inactive). For the same compound, the GI50 (SNB-19) was > 250 µM (inactive), the GI50 (SF-268) was > 250 µM (inactive) and the GI50 (OVCAR-3) was > 250 µM (inactive). The GI50 (U-251) was > 250 µM (inactive), the GI50 (IGROV-1) was > 250 µM (inactive) and the GI50 (EKVX) was > 250 µM (inactive). The GI50 (KM12) was > 250 µM (inactive), the GI50 (NCI-H522) was > 250 µM (inactive) and the GI50 (SNB-78) was > 250 µM (inactive). The GI50 (DLD-1) was > 250 µM (inactive), the GI50 (HL-60) was 237 µM (inactive) and the GI50 (NCI-H226) was > 250 µM (inactive). The GI50 (SK-MEL-5) was > 250 µM (inactive), the GI50 (MOLT-4) was > 250 µM (inactive) and the GI50 (CCRF-CEM) was > 250 µM (inactive). The GI50 (HCT-116) was > 250 µM (inactive), the GI50 (Malme-3M) was > 250 µM (inactive) and the GI50 (HCT-15) was over 250 µM. For the same compound, the GI50 (NCI-H460) was > 250 µM (inactive), the GI50 (UO-31) was > 250 µM (inactive) and the GI50 (NCI/ADR-RES) was > 250 µM (inactive). The GI50 (SF-539) was > 250 µM (inactive), the GI50 (RPMI-8226) was > 250 µM (inactive) and the GI50 (HCC 2998) was > 250 µM (inactive). The GI50 (SK-MEL-2) was > 250 µM (inactive), the GI50 (COLO 205) was > 250 µM (inactive) and the GI50 (LOX IMVI) was > 250 µM (inactive). For the same compound, the GI50 (SF-295) was 129 µM (inactive), the GI50 (UACC-257) was > 250 µM (inactive) and the GI50 (OVCAR-8) was > 250 µM (inactive).

For `CC(C)C1(O)C(=O)N(c2c(F)c(F)c(F)c(F)c2F)C(=S)N1CCSc1ccccc1` (stereo unspecified), the GI50 (CAKI-1) was 12.2 µM (inactive), the GI50 (SK-MEL-28) was 16.5 µM (inactive) and the GI50 (UACC-62) was 15.8 µM (inactive). The GI50 (SW-620) was 16.6 µM (inactive), the GI50 (SNB-19) was 17.8 µM (inactive) and the GI50 (SF-268) was 18.4 µM (inactive). The GI50 (Hs-578T) was 22.6 µM (inactive), the GI50 (OVCAR-3) was 16.4 µM (inactive) and the GI50 (U-251) was 18.2 µM (inactive). For the same compound, the GI50 (IGROV-1) was 16.4 µM (inactive), the GI50 (EKVX) was 18.8 µM (inactive) and the GI50 (OVCAR-5) was 18.7 µM (inactive). For the same compound, the GI50 (DU-145) was 17.1 µM (inactive), the GI50 (KM12) was 17.1 µM (inactive) and the GI50 (M14) was 17.5 µM (inactive). The GI50 (NCI-H522) was 16.6 µM (inactive), the GI50 (HL-60) was 14.3 µM (inactive) and the GI50 (BT-549) was 16.1 µM (inactive). The GI50 (NCI-H226) was 20.7 µM (inactive), the GI50 (K562) was 13 µM (inactive) and the GI50 (HOP-92) was 9.53 µM (inactive). The GI50 (SK-MEL-5) was 17.4 µM (inactive), the GI50 (SN12C) was 15.3 µM (inactive) and the GI50 (MDA-MB-435) was 18.2 µM (inactive). For the same compound, the GI50 (PC-3) was 15.7 µM (inactive), the GI50 (MOLT-4) was 15.1 µM (inactive) and the GI50 (MCF7) was 17.2 µM (inactive). For the same compound, the GI50 (NCI-H23) was 18.1 µM (inactive), the GI50 (CCRF-CEM) was 13.9 µM (inactive) and the GI50 (HCT-116) was 18.2 µM (inactive). For the same compound, the GI50 (HOP-62) was 18.5 µM (inactive), the GI50 (786-0) was 19.1 µM (inactive) and the GI50 (Malme-3M) was 17.3 µM (inactive). For the same compound, the GI50 (HCT-15) was 17.9 µM, the GI50 (OVCAR-4) was 15.2 µM (inactive) and the GI50 (T47D) was 16.2 µM (inactive). The GI50 (HT-29) was 18.4 µM (inactive), the GI50 (RXF 393) was 17.3 µM (inactive) and the GI50 (NCI-H460) was 19.2 µM (inactive). The GI50 (UO-31) was 15.5 µM (inactive), the GI50 (SNB-75) was 16.7 µM (inactive) and the GI50 (NCI/ADR-RES) was 16.3 µM (inactive). The GI50 (TK-10) was 14.7 µM (inactive), the GI50 (ACHN) was 17.5 µM (inactive) and the GI50 (A498) was 16.3 µM (inactive). The GI50 (SF-539) was 20.1 µM (inactive), the GI50 (A549) was 15.3 µM (inactive) and the GI50 (SK-OV-3) was 17.3 µM (inactive). The GI50 (SR) was 16.2 µM (inactive), the GI50 (MDA-N) was 17.2 µM (inactive) and the GI50 (RPMI-8226) was 10.9 µM (inactive). For the same compound, the GI50 (MDA-MB-231) was 13.1 µM (inactive), the GI50 (HCC 2998) was 20.6 µM (inactive) and the GI50 (SK-MEL-2) was 17.7 µM (inactive). The GI50 (COLO 205) was 17.9 µM (inactive), the GI50 (LOX IMVI) was 16.5 µM (inactive) and the GI50 (SF-295) was 17.3 µM (inactive). The GI50 (UACC-257) was 18.2 µM (inactive) and the GI50 (OVCAR-8) was 19 µM (inactive).
